# Reference: article PMC5442124 (Scientific Reports, 2017)
# What was measured:
# [1] = Bioaccumulation of DDTs in carp and carp tissues/organs in DDT spiked-sediment microcosm (food web); assay type: in vivo, Cyprinus carpio; conditions: treatment group; for concentration at 28 days / concentration at 9 day: Cyprinus carpio (carp), other: spiked sediment-water system with T. tubifex as prey; for concentration at 28 days: brain, end of the experiments; for concentration at 9 day: whole fish (wet weight), whole carp, read-out: concentration in carp at steady state; for maximum concentration in gastrointestinal tract: first 5 days
# Protocol: (§1) The sediment was prepared in a glass aquarium with 3.6 kg soil (collected from China Agricultural University, and the physicochemical properties of the soil were as follows: clay, 34.8 ± 0.1%; silt, 10.0 ± 2.8%; sand, 55.2 ± 2.8%; organic matter, 24.4 ± 0.8 g/kg; and pH, 7.74 ± 0.05.) and 16 L de-chlorinated tap water, and incubated for seven days. The overlying water was discarded, and 400 g sediment (dry weight) was spiked with o,p’-DDT (50 ng/μL, 1600 μL) and p,p’-DDT (50 ng/μL, 1600 μL) in acetone. After the solvent was volatilized, the sediment was blended with the 3.6 kg sediment (dry weight) thoroughly. Dechlorinated tap water was added, and system was allowed to equilibrate for 48 h.
# Environmentally relevant concentration exposure was conducted according to Organization for Economic Cooperation and Development (OECD section 305 and 315) test guidelinesn, [52]. […] T. tubifex is one of the most widespread and ubiquitous groups, which was considered to be a good bio-indicator[53], [54]. Carp are omnivorous demersal fish in fresh water ecosystems, which can serve as bio-indicators of environmental contaminants and play significant roles in assessing potential risk[44]. Adult T. tubifex and carp (2.0 ± 0.2 g, about 5 cm in length, ignore the gender) were obtained from Guan Yuan market (Beijing, China) and acclimatized in the laboratory for 2 weeks. T. tubifex (80 g) and ten fish were added into the sediment-water system for the exposure experiment. Twenty-seven glass aquariums with spiked sediment were cultivated at 14 h/10 h photoperiods and at 20 ± 2 °C for 28 days (nine aquariums were used to analyze the individual fish and T. tubifex worms, eighteen aquariums were used to analyze the tissue distribution and toxic effects). The overlying water was gently aerated and unchanged. Overlying water, fish (one from each aquariums), worms (about 1 g) and sediment were sampled on the 1st, 3ed, 5th, 9th, 14th, 21st, and 28th day. At the end of bioaccumulation experiments, all the fish and worms were transferred to un-spiked sediment for elimination experiments, respectively. Overlying water, fish (one from each aquariums), worms (about 1 g) and sediment were sampled on the 1st, 3ed, 5th, 7th, and 10th day. […] Fish were euthanized with an ice/water mixture.
# (§2) The different tissues/organs of carp were extracted with different methods. Details of the extraction process please refer to the Supplementary Material. The lipid content of animals was measured according to Bligh and Dyer[55]. […] Details please refer to the Supplemental Material.
# [2] = Elimination of DDTs in T. tubifex after transfer to un-spiked sediment; assay type: in vivo; conditions: elimination experiment in un-spiked sediment
# Protocol: (§3) Environmentally relevant concentration exposure was conducted according to Organization for Economic Cooperation and Development (OECD section 305 and 315) test guidelinesn, [52]. Tubifex tubifex (Oligochaeta, Tubificidae) was chosen as prey, which could accumulate DDTs from sediment and transfer them to carp (Cyprinus carpio). T. tubifex is one of the most widespread and ubiquitous groups, which was considered to be a good bio-indicator[53], [54]. Carp are omnivorous demersal fish in fresh water ecosystems, which can serve as bio-indicators of environmental contaminants and play significant roles in assessing potential risk[44]. Adult T. tubifex and carp (2.0 ± 0.2 g, about 5 cm in length, ignore the gender) were obtained from Guan Yuan market (Beijing, China) and acclimatized in the laboratory for 2 weeks. T. tubifex (80 g) and ten fish were added into the sediment-water system for the exposure experiment. Twenty-seven glass aquariums with spiked sediment were cultivated at 14 h/10 h photoperiods and at 20 ± 2 °C for 28 days (nine aquariums were used to analyze the individual fish and T. tubifex worms, eighteen aquariums were used to analyze the tissue distribution and toxic effects). The overlying water was gently aerated and unchanged. Overlying water, fish (one from each aquariums), worms (about 1 g) and sediment were sampled on the 1st, 3ed, 5th, 9th, 14th, 21st, and 28th day. At the end of bioaccumulation experiments, all the fish and worms were transferred to un-spiked sediment for elimination experiments, respectively. Overlying water, fish (one from each aquariums), worms (about 1 g) and sediment were sampled on the 1st, 3ed, 5th, 7th, and 10th day. […] Fish were euthanized with an ice/water mixture.
# as §2
# [3] = Elimination of DDTs from carp and carp tissues/organs after transfer to un-spiked sediment; assay type: in vivo, Cyprinus carpio; conditions: for percentage eliminated from brain: carp brain; for percentage eliminated from brain / percentage eliminated from kidney: end of experiments; for elimination percentage from gallbladder: carp gallbladder; for elimination percentage in heart: carp heart; for percentage eliminated from kidney: carp kidney
# Protocol: as §3, §2
# [4] = Bioaccumulation of DDTs in T. tubifex in DDT spiked-sediment microcosm; assay type: in vivo; conditions: for maximum concentration in T. tubifex / concentration at 28 day: treatment group; for maximum concentration in T. tubifex: fifth day; for concentration at 28 day: Tubifex tubifex, whole worm (wet weight), other: exposure in spiked sediment-water system, day 28
# Protocol: as §1, §3
# The control treatments (twenty-seven glass aquariums: nine aquariums were used to analyze the individual fish and T. tubifex worms, eighteen aquariums were used to analyze the tissue distribution and toxic effects) were composed of worms, fish and un-spiked sediment. The cultivation, sample time and dissection procedures were the same to the exposure experiments.
# as §2
# [5] = set-up: method as in PMID 14194764; conditions: after 6 days’ dietary exposure to DDT (1500 μg/g); cited from earlier work
# aquatic life = test system: aquatic life; set-up: method as in earlier work; conditions: Canadian Sediment Quality Guidelines for the protection of aquatic life; cited from earlier work
# [6] = rainbow trout exposed in water; cited from earlier work
Compound,concentration at 28 days ([1]; carp),elimination efficiency in T. tubifex [2],percentage eliminated from brain [3],elimination percentage from gallbladder [3],elimination percentage in heart [3],percentage eliminated from kidney [3],maximum concentration in T. tubifex [4],"concentration in brain (maximum) ([1]; carp, 9th day)",other results
"ClC(Cl)=C(c1ccc(Cl)cc1)c1ccc(Cl)cc1 [p,p’-DDE]",41.6 ± 0.5 ng/g,25.7%,52.8%,50.8%,59.9%,48.7%,21.7 ± 0.8 ng/gwwt,–,"highest concentration in kidney ([1]; carp, 21st day): 46.9 ± 0.6 ng/gwwt; maximum concentration in muscle ([1]; carp, 21st day): 11.7 ± 2.6 ng/gwwt; maximum concentration in T. tubifex, control group ([4]; control group (un-spiked sediment), 14th day): 28.2 ± 1.1 ng/gwwt"
"Clc1ccc(C(c2ccccc2Cl)C(Cl)(Cl)Cl)cc1 (centres unmarked) [o,p’-DDT]",–,65.7%,–,–,51.9%,–,74.6 ± 1.8 ng/gwwt,40.3 ± 1.8 ng/gwwt,"concentration at 9 day ([1]; 9th day): 39.1 ± 0.3 ng/g; maximum concentration in kidney ([1]; carp, 9th day): 96.2 ± 2.0 ng/gwwt; maximum concentration in gastrointestinal tract ([1]; carp): 40.9 ± 0.9 ng/gwwt; concentration at 28 day [4]: 5.6 ± 0.1 ng/g"
"Clc1ccc(C(c2ccc(Cl)cc2)C(Cl)Cl)cc1 [p,p’-DDD]",68.4 ± 0.6 ng/g,58.2%,61.4%,64.1%,69.6%,63.9%,–,–,"maximum concentration in kidney ([1]; carp, 28th day): 89.9 ± 3.7 ng/gwwt"
"Clc1ccc(C(c2ccccc2Cl)C(Cl)Cl)cc1 (centres unmarked) [o,p’-DDD]",45.7 ± 0.3 ng/g,49.0%,65.5%,66.9%,72.5%,65.4%,–,–,"maximum concentration in kidney ([1]; carp, 28th day): 73.5 ± 1.9 ng/gwwt"
"Clc1ccc(C(c2ccc(Cl)cc2)C(Cl)(Cl)Cl)cc1 [DDT, Dichlorodiphenyltrichloroethane]",–,–,–,–,–,–,–,–,ratio DDT:DDD:DDE detected in the livers of rats [5]: approximately 3; effects range-low (ERL) value in sediments (aquatic life): 1 ng/g
Oc1c(Cl)c(Cl)c(Cl)c(Cl)c1Cl [pentachlorophenol],–,–,–,–,–,–,–,–,dose eliminated in feces and bile [6]: 30%; dose eliminated in urine [6]: 20%; dose eliminated through the gills [6]: 50%
"Clc1ccc(C(c2ccc(Cl)cc2)C(Cl)(Cl)Cl)cc1 [p,p’-DDT]",–,73.6%,–,–,–,–,165.5 ± 2.7 ng/gwwt,49.1 ± 1.0 ng/gwwt,"concentration at 9 day ([1]; 9th day): 57.3 ± 3.1 ng/g; maximum concentration in kidney ([1]; carp, 9th day): 124.0 ± 2.6 ng/gwwt; maximum concentration in gastrointestinal tract ([1]; carp): 43.2 ± 0.5 ng/gwwt; concentration at 28 day [4]: 18.4 ± 2.2 ng/g"
"ClC(Cl)=C(c1ccc(Cl)cc1)c1ccccc1Cl [o,p’-DDE]",–,39.5%,55.0%,24.1%,–,47.5%,2.1 ± 0.2 ng/gwwt,3.1 ± 0.1 ng/gwwt,–
